Patent US10301272B2, “Carboxamide or sulfonamide substituted thiazoles and related derivatives as modulators for the orphan nuclear receptor ROR[γ]” (Phenex Pharmaceuticals AG, priority 2012, dated 2019)
Where two headings read alike, the source gives them in different places.

Legend:
RORγ = RORγ (Homo sapiens, UniProt P51449); test: RORγ Gal4 Reporter Gene Assay; assay type: cell-based; conditions: for IC50: 293T cells
Procedure, shortened: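 Cells at 5×10^5/well were transfected with RORγ fragments fused to the GAL4 DNA-binding domain (CMV promoter), a 5×GAL4-site firefly luciferase reporter and CMV-Renilla luciferase for normalization. About 4 h later serum-free MEM and compound were added (vehicle ≤0.1%). Cultures at 37 °C, 5% CO2; at least triplicates.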

[1] = target: RORγ ligand binding domain (LBD) (Homo sapiens (Human), UniProt P51449); test: TR-FRET Activity Assay (ligand sensing assay, LANCE); conditions: for pIC50 (FRET): TR-FRET, interaction of RORγ-LBD with coactivator peptide
Sequence of RORγ ligand binding domain (LBD) (P51449 269-508): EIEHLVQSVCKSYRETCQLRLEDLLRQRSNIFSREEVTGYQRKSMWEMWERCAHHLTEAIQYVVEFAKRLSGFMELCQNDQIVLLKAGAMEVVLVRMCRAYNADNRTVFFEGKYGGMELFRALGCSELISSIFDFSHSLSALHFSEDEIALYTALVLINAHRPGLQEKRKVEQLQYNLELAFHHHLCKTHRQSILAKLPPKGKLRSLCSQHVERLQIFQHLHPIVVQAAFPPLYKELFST

[2] = firefly (FF) luciferase, read-out: pIC50 (FF) (converted)
[3] = renilla normalised (RENnorm) luciferase, read-out: pIC50 (REN) (converted)

Sequence of RORγ (P51449 whole entry, looked up, the tested form may be a part): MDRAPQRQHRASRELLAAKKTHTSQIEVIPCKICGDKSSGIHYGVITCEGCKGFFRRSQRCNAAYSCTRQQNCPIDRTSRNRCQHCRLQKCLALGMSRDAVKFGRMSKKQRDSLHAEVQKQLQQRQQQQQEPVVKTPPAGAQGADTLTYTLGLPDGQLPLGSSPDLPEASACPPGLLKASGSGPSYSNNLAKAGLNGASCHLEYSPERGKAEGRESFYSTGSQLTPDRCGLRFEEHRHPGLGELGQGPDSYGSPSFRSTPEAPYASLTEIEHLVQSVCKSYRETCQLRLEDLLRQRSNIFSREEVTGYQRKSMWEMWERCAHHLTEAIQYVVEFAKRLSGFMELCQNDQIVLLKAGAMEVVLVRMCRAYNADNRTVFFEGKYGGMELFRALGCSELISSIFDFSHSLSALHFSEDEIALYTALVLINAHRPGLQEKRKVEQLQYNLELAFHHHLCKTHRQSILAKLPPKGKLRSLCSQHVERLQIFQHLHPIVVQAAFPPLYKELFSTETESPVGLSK

IC50 (RORγ; [2]) | IC50 (RORγ; [3]) | IC50 [1] | SMILES | pIC50 (FF) (RORγ) | pIC50 (REN) (RORγ) | pIC50 (FRET) [1]
– | – | – | CC(C)(C)NS(=O)(=O)c1ccc(-c2sc(C(=O)N[C@H]3C[C@H](C(=O)O)C3)nc2CC2CCCCC2)cc1C(C)(C)O [7/17] | 6.5/8.0/8.0 | 6.5/8.0/8.0 | 6.5/8.0/8.0
– | – | – | CC(C)(C)c1cc(-c2sc(C(=O)N[C@H]3C[C@H](C(=O)O)C3)nc2CC2CCCCC2)cc(C(C)(F)F)c1 [7/18] | 6.4/7.4/7.4 | 6.4/7.4/7.4 | 6.4/7.4/7.4
251 nM | 251 nM | > 20000 nM | COc1ccc(-c2sc(C(=O)N[C@H]3C[C@H](C(=O)O)C3)nc2CC2CCCCC2)c2ccccc12 [7/20] | – | – | –
126 nM | 126 nM | 2000 nM | O=C(N[C@H]1C[C@H](C(=O)O)C1)c1nc(CC2CCCCC2)c(-c2ccc(OC(F)(F)F)c3ccccc23)s1 [7/21] | – | – | –
316 nM | 631 nM | > 20000 nM | O=C(N[C@H]1C[C@H](C(=O)O)C1)c1nc(CC2CCCCC2)c(-c2ccc(OCC(F)(F)F)c3ccccc23)s1 [7/22] | – | – | –
– | – | – | CC(C)(C)NC(=O)c1ccc(-c2sc(C(=O)NC3CCS(=O)(=O)CC3)nc2CC2CCCCC2)c2ccccc12 [7/25] | 6.2/6.6/6.5 | 6.2/6.6/6.5 | 6.2/6.6/6.5
– | – | – | CC1(C)COCCN1Cc1ccc(-c2sc(C(=O)NC3CCS(=O)(=O)CC3)nc2CC2CCCCC2)c2ccccc12 [7/26] | 6.8/7.7/7.9 | 6.8/7.7/7.9 | 6.8/7.7/7.9
– | – | – | O=C(NC1CCS(=O)(=O)CC1)c1nc(CC2CCCCC2)c(-c2ccc(N3CCOCC3)c3ccccc23)s1 [7/27] | 6.5/6.9/6.9 | 6.5/6.9/6.9 | 6.5
– | – | – | CC(C)(O)CNC(=O)c1nc(CC2CCCCC2)c(-c2ccc(S(=O)(=O)NC3(C(N)=O)CC3)c3ccccc23)s1 [8/3] | 6.4/7.5/7.6 | 6.4/7.5/7.6 | 6.4/7.5/7.6
– | – | – | CC(C)(O)CNC(=O)c1nc(CC2CCCCC2)c(-c2ccc(S(=O)(=O)NC3(C)COC3)c3ccccc23)s1 [8/5] | 6.4/8.5/8.7 | 6.4/8.5/8.7 | 6.4/8.5/8.7
– | – | – | C[C@H](NC(=O)c1cc(-c2sc(C(=O)NCC(C)(C)O)nc2CC2CCCCC2)cc(C2(C)CC2)c1)C(F)(F)F [8/6] | 7.0/8.2/8.3 | 7.0/8.2/8.3 | 7.0/8.2/8.3
63.1 nM | 79.4 nM | 501 nM | CC(C)(C)c1cc(-c2sc(C(=O)N[C@H]3C[C@H](C(=O)O)C3)nc2CC2CCCCC2)cc(C(C)(C)C)n1 [8/8] | – | – | –
126 nM | 126 nM | 794 nM | CC(C)(C)c1cc(-c2sc(C(=O)N[C@H]3C[C@H](C(=O)O)C3)nc2CC2CCCCC2)cc(C(C)(C)C)[n+]1[O-] [8/9] | – | – | –
158 nM | 158 nM | 631 nM | CC(C)(C)c1cc(-c2sc(C(=O)N[C@H]3C[C@H](C(=O)O)C3)nc2CC2CCCCC2)cc(C(C)(C)O)n1 [8/10] | – | – | –
– | – | – | CC(C)(C)NS(=O)(=O)c1ccc(-c2sc(C(=O)N[C@H]3C[C@H](C(=O)O)C3)nc2CC2CCCCC2)cc1C(F)(F)F [9/2] | 6.9/8.0/8.0 | 6.9/8.0/8.0 | 6.9/8.0/8.0
– | – | – | CC(C)(C)NS(=O)(=O)c1ccc(-c2sc(C(=O)NCC(C)(C)C(=O)O)nc2CC2CCCCC2)cc1C(F)(F)F [9/3] | 6.4/7.2/7.4 | 6.4/7.2/7.4 | 6.4/7.2/7.4
– | – | – | CC(C)(O)c1cc(-c2sc(C(=O)N[C@H]3C[C@H](C(=O)O)C3)nc2CC2CCCCC2)cc(C2(C)CC2)c1 [9/4] | 6.5/7.1/7.1 | 6.5/7.1/7.1 | 6.5/7.1/7.1
– | – | – | COC(C)(C)c1cc(-c2sc(C(=O)N[C@H]3C[C@H](C(=O)O)C3)nc2CC2CCCCC2)cc(C2(C)CC2)c1 [9/5] | 6.7/7.8/7.9 | 6.7/7.8/7.9 | 6.7/7.8/7.9
– | – | – | CC(C)(C)NC(=O)c1cc(-c2sc(C(=O)N[C@H]3C[C@H](C(=O)O)C3)nc2CC2CCCCC2)cc(C(C)(C)C)c1 [9/7] | 6.2/7.4/7.5 | 6.2/7.4/7.5 | 6.2/7.4/7.5
– | – | – | CC1(c2cc(-c3sc(C(=O)N[C@H]4C[C@H](C(=O)O)C4)nc3CC3CCCCC3)cc(C(F)(F)F)c2)CC1 [9/8] | 6.5/7.1/7.1 | 6.5/7.1/7.1 | 6.5/7.1/7.1

SMILES | IC50 (RORγ; [2]) | IC50 (RORγ; [3]) | IC50 [1] | pIC50 (FF) (RORγ) | pIC50 (REN) (RORγ) | pIC50 (FRET) [1]
CC(C)(O)c1ccc(-c2sc(C(=O)NC3CCS(=O)(=O)CC3)nc2CC2CCCCC2)c2ccccc12 [7/23] | – | – | > 20000 nM | <4.7/6.8/6.7 | <4.7/6.8/6.7 | –
